Laboratory results published in patent US7227043B2, “2-phenyl-2-substituted-1,3-diketones” (Bayer CropScience Ag, priority 2002, dated 2007).

Tests used:
Type in all cases: in vivo
Meloidogyne incognita = test: Meloidogyne test; conditions: 20 ppm, lettuce in sand, 100% = no galls
Experimental: Meloidogyne Test • Solvent: 7 parts by weight of dimethylformamide • Emulsifier: 2 parts by weight of alkylaryl polyglycol ether To produce a suitable preparation of active compound, 1 part by weight of active compound is mixed with the stated amounts of solvent and emulsifier, and the concentrate is diluted with water to the desired concentration. Containers are filled with sand, solution of active compound, Meloidogyne incognita egg/larvae suspension and lettuce seeds. The lettuce seeds germinate and the plants develop. On the roots, galls are formed. After the desired period of time, the nematicidal action is determined in % by the gall formation. 100% means that no galls have been formed; 0% means that the number of galls on the treated plants corresponds to that of the untreated control.

Venturia inaequalis = test: Venturia test (apple)/protective; conditions: protective, 10 days after inoculation; for % efficacy: 100 g/ha
Experimental: (§1) Venturia Test (Apple)/Protective […] To produce a suitable preparation of active compound, 1 part by weight of active compound is mixed with the stated amounts of solvent and emulsifier, and the concentrate is diluted with water to the desired concentration. To test for protective activity, young plants are sprayed with the preparation of active compound at the stated application rate. After the spray coating has dried on, the plants are inoculated with an aqueous conidia suspension of the apple scab pathogen Venturia inaequalis and then remain in an incubation cabin at about 20° C. and 100% relative atmospheric humidity for 1 day.

[1] = test system: larvae of the mustard beetle (Phaedon cochleariae); test: Phaedon larvae test; conditions: 500 ppm, cabbage leaves dipped
Experimental: (§2) Phaedon larvae Test • Solvent: 7 parts by weight of dimethylformamide • Emulsifier: 2 parts by weight of alkylaryl polyglycol ether To produce a suitable preparation of active compound, 1 part by weight of active compound is mixed with the stated amounts of solvent and emulsifier, and the concentrate is diluted with emulsifier-containing water to the desired concentration. Cabbage leaves (Brassica oleracea) are treated by being dipped into the preparation of active compound of the desired concentration and are populated with larvae of the mustard beetle (Phaedon cochleariae) while the leaves are still moist. After the desired period of time, the kill in % is determined. 100% means that all beetle larvae have been killed; 0% means that none of the beetle larvae have been killed.

Plasmopara viticola = test: Plasmopara test (grapevine)/protective; conditions: 144 h, protective, 6 days after inoculation, read-out: % efficacy
Experimental: as §1, with “Plasmopara” for “Venturia”, “(Grapevine)/Protective” for “(Apple)/Protective”, “spore” for “conidia”, “Plasmopara viticola” for “the apple scab pathogen Venturia inaequalis”, “day. […] The plants are then moistened and placed in an incubation cabin for 1 day.” for “day.”

Sugar beet = test: Pre-emergence test, sugar beet; conditions: 250 g of ai/ha, after three weeks, 100% = total destruction
Experimental: (§3) • Solvent: 5 parts by weight of acetone • Emulsifier: 1 part by weight of alkylaryl polyglycol ether
(§4) To produce a suitable preparation of active compound, 1 part by weight of active compound is mixed with the stated amount of solvent, the stated amount of emulsifier is added and the concentrate is diluted with water to the desired concentration.
(§5) Seeds of the test plants are sown in normal soil. After about 24 hours, the soil is sprayed with the preparation of active compounds such that the particular amounts of active compound desired are applied per unit area. The concentration of the spray liquor is chosen such that the particular amounts of active compound desired are applied in 1000 l of water/ha.
(§6) After three weeks, the degree of damage to the plants is rated in % damage in comparison to the development of the untreated control.
(§7) The figures denote: • 0%=no effect (like untreated control) • 100%=total destruction

[2] = test system: peach aphid (Myzus persicae); test: Myzus test; conditions: 500 ppm, cabbage leaves dipped
Experimental: as §2, with “Myzus” for “Phaedon larvae”, “oleracea) which are heavily infested by the peach aphid (Myzus persicae)” for “oleracea)”, “concentration.” for “concentration and are populated with larvae of the mustard beetle (Phaedon cochleariae) while the leaves are still moist.”, “aphids” for “beetle larvae”

Botrytis cinerea = test: Botrytis test (bean)/protective; conditions: 48 h, protective, 2 days after inoculation, read-out: % efficacy
Experimental: Botrytis Test (Bean)/Protective
• Solvents: 24.5 parts by weight of acetone • 24.5 parts by weight of dimethylacetamide • Emulsifier: 1.0 part by weight of alkylaryl polyglycol ether
To produce a suitable preparation of active compound, 1 part by weight of active compound is mixed with the stated amounts of solvent and emulsifier, and the concentrate is diluted with water to the desired concentration.
To test for protective activity, young plants are sprayed with the preparation of active compound at the stated application rate. After the spray coating has dried on, 2 small pieces of agar colonized by Botrytis cinerea are placed on each leaf. The inoculated plants are placed in a dark chamber at about 20° C. and 100% relative atmospheric humidity.
2 days after the inoculation, the size of the infected areas on the leaves is evaluated. 0% means an efficacy which corresponds to that of the control, whereas an efficacy of 100% means that no infection is observed.

Tetranychus urticae = test: Tetranychus test (OP-resistant/dip treatment); conditions: 100 ppm, bean plants dipped, OP-resistant
Experimental: Tetranychus Test (OP-Resistant/Dip Treatment)
• Solvent: 7 parts by weight of dimethylformamide • Emulsifier: 2 parts by weight of alkylaryl polyglycol ether
To produce a suitable preparation of active compound, 1 part by weight of active compound is mixed with the stated amounts of solvent and emulsifier, and the concentrate is diluted with emulsifier-containing water to the desired concentration.
Bean plants (Phaseolus vulgaris) which are heavily infested by all stages of the greenhouse […] spider mite (Tetranychus urticae) are dipped into a preparation of active compound of the desired concentration.
After the desired period of time, the effect in % is determined. 100% means that all spider mites have been killed; 0% means that none of the spider mites have been killed.

Echinochloa = test: Pre-emergence test, Echinochloa; conditions: 250 g of ai/ha, after three weeks, 100% = total destruction
Experimental: as §3, §4, §5, §6, §7

Setaria = test: Pre-emergence test, Setaria; conditions: 250 g of ai/ha, after three weeks, 100% = total destruction
Experimental: as §3, §4, §5, §6, §7

Phytophthora infestans = conditions: 750 g/ha; protective; tomato; 7 days after inoculation
[3] = test system: caterpillars of the armyworm (Spodoptera frugiperda); test: Spodoptera frugiperda test; conditions: 500 ppm, cabbage leaves dipped
Experimental: as §2, with “Spodoptera frugiperda” for “Phaedon larvae”, “caterpillars” for “larvae”, “armyworm (Spodoptera frugiperda)” for “mustard beetle (Phaedon cochleariae)”, “caterpillars” for “beetle larvae”

Sphaerotheca fuliginea = test: Sphaerotheca test (cucumber)/protective; conditions: 100 g/ha, protective, 7 days after inoculation
Experimental: Sphaerotheca Test (Cucumber)/Protective […] To produce a suitable preparation of active compound, 1 part by weight of active compound is mixed with the stated amounts of solvent and emulsifier, and the concentrate is diluted with water to the desired concentration. To test for protective activity, young plants are sprayed with the preparation of active compound at the stated application rate. After the spray coating has dried on, the plants are inoculated with an aqueous spore suspension of Sphaerotheca fuliginea The plants are then placed in a greenhouse at about 23° C. and a relative atmospheric humidity of about 70%.

Alopecurus = test: Pre-emergence test, Alopecurus; conditions: 250 g of ai/ha, after three weeks, 100% = total destruction
Experimental: as §3, §4, §5, §6, §7

SMILES	Kill rate in % after 7d [1]	% damage, Sugar beet (Sugar beet)	Kill rate in % after 7d (Tetranychus urticae)	% damage, Echinochloa (Echinochloa)	% damage, Setaria (Setaria)	Efficacy in % (Phytophthora infestans)	Kill rate in % after 7d [3]	% damage, Alopecurus (Alopecurus)	further results
CC(C)C1CC(=O)C(Cl)(c2cc(Br)ccc2Cl)C(=O)C1 (stereo not drawn) [Ex. I-2-6]	–	–	–	–	–	–	–	–	Effect in % after 14d (nematicidal action by gall formation) (Meloidogyne incognita): 80%
Cc1ccc(-c2ccc(Cl)cc2)cc1C1(Cl)C(=O)CC2(CCCCC2)C1=O (stereo not drawn) [Ex. I-1-1]	100%	0%	100%	100%	90%	–	–	–	Emax at 100 g/ha (Venturia inaequalis; Venturia inaequalis, 240 h, read-out: % efficacy): 100%; Emax at 100 g/ha (Plasmopara viticola): 100%; Kill rate in % after 6d [2]: 80%; Emax at 100 g/ha (Botrytis cinerea): 96%
Cc1ccc(-c2ccc(Cl)cc2)cc1C1(Cl)C(=O)CC2(CCCCCC2)C1=O (stereo not drawn) [Ex. I-1-4]	–	–	–	–	–	90%	–	–	–
CC1(C)CC(=O)C(Cl)(c2cc(-c3ccc(Cl)cc3)ccc2Cl)C(=O)C1 [Ex. I-2-1]	100%	0%	100%	90%	80%	89%	100%	70%	% efficacy (Venturia inaequalis): 73%; Effect in % after 14d (nematicidal action by gall formation) (Meloidogyne incognita): 90%; % efficacy (Sphaerotheca fuliginea): 97%
Cc1ccc(-c2ccc(Cl)cc2)cc1C1(Cl)C(=O)CC(C)(C)CC1=O [Ex. I-2-3]	100%	0%	100%	80%	90%	–	100%	80%	% efficacy (Venturia inaequalis): 86%
O=C1CC2(CCCC2)CC(=O)C1(Cl)c1cc(Br)ccc1Cl [Ex. I-2-4]	–	–	80%	–	–	–	–	–	–
Cc1ccc(-c2ccc(Cl)cc2)cc1C1(Cl)C(=O)CC2(CCCC2)CC1=O [Ex. I-2-2]	100%	0%	98%	95%	90%	–	100%	90%	–
Cc1ccc(-c2ccc(Cl)cc2)cc1C1(Cl)C(=O)CC2(CCCC2)C1=O (stereo not drawn) [Ex. I-1-3]	–	–	–	–	–	80%	–	–	–
O=C1CC2(CCCC2)CC(=O)C1(Cl)c1cc(-c2ccc(Cl)cc2)ccc1Cl [Ex. I-2-5]	100%	–	98%	–	–	–	100%	–	–
